In publication PMC12298007 (Pharmaceuticals, 2025) one finds Kd data, which are given here for one molecule.

The assay concerns the target T1, human PSMA (CHO-K1-PSMA cells) (Homo sapiens, UniProt Q04609).
T1 construct: host or cells: CHO-K1 (lentiviral transduction, clone 5)
Kind of assay: Saturation binding assay on CHO-K1-PSMA cells. The note with it: 2 h at 4 °C. The procedure:
Saturation binding experiments were carried out with increasing concentrations of the radiolabeled peptides for 2 h at 4 °C. […] Cells were processed as previously published. […] The next day, the culture medium was replaced with 0.8 mL Ham's F 12 Nutrient Mix (1% FBS), and the cells were kept in the fridge for 30 min before the addition of the radioligand. […] The saturation assay was performed at 4 °C to avoid internalization. […] Total incubation volume per well: 1 mL. […] The obtained fractions and standard aliquots were measured in a γ-counter. […] Human GRPR reverse: [NT] Human β-ACTIN forward: [NT] Human β-ACTIN reverse: [NT] 3.3.4 Western blot Total protein was isolated from cell lines as previously described. PierceTM Coomassie Plus (Bradford) Protein Assay Kit (Thermo Scientific, Cat.Nr. 23236) was used for measuring protein concentrations and 30 μg (for PSMA) or 40 μg (for GRPR) protein per sample was used for SDS-PAGE and Western blot as previously described. PSMA (CST, D4S1F) Rabbit, GRPR (Alomone labs, Cat.Nr. ABR-002) Rabbit, α-Tubulin (Proteintech, Cat.Nr. 66031-1-Ig) Mouse and β-Actin (Proteintech, Cat.Nr. 66009-1-Ig) Mouse antibodies were utilized for detection of protein expression. Secondary antibodies used, included goat anti -rabbit IgG HRP conjugate (JD111036047) and rabbit anti -mouse IgG HRP conjugate (JD315035008). […] (Figure 6B, Table 1, main manuscript). […] 21

Non-standard residues stand in square brackets, D forms with d. Residues, ends and D or L forms follow the SMILES beside them. *: point of attachment. X1 = O=C(O)CC[C@H](NC(=O)N[C@@H](CCCCNC(=O)CCCCCCC(=O)*)C(=O)O)C(=O)O; d2Nal = N[C@H](Cc1ccc2ccccc2c1)C(=O)O; Mercaptoacetyl = O=C(CS)*

T1 sequence (Q04609 whole entry): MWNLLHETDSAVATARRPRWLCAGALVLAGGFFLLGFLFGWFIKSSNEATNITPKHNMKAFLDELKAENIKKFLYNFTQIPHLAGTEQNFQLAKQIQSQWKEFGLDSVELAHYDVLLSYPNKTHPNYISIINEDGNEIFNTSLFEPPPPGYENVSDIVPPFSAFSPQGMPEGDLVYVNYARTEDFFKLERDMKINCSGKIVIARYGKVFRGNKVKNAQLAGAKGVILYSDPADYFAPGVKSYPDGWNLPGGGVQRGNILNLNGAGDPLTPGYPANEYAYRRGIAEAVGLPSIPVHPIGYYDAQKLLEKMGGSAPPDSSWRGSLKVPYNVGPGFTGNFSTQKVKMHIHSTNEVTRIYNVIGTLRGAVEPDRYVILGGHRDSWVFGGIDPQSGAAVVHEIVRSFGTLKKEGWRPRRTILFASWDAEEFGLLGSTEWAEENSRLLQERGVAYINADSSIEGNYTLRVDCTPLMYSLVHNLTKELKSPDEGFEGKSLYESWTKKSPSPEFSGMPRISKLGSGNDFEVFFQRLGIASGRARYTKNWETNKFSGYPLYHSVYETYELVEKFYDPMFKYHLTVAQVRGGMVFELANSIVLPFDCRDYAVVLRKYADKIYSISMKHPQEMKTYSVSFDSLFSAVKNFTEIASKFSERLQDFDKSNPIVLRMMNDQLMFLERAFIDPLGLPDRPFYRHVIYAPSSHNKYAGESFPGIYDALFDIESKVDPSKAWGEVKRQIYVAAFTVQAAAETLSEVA

As usually defined, the Kd is the free concentration of one partner at which half of the binding sites on the other are occupied at equilibrium, for simple one-to-one binding. A lower Kd goes with tighter binding. As for `O=C(O)CC[C@H](NC(=O)N[C@@H](CCCCNC(=O)CCCCCCC(=O)NCCCC[C@@H](NC(=O)[C@@H](Cc1ccc2ccccc2c1)NC(=O)[C@@H](Cc1ccc(O)cc1)NC(=O)[C@@H](CO)NC(=O)[C@@H](CO)NC(=O)[C@@H](CO)NC(=O)CS)C(=O)O)C(=O)O)C(=O)O` [[^99mTc]Tc-PSMA-I&S, metal not drawn] (Mercaptoacetyl-[dS][dS][dS][dY][d2Nal][dK](X1)-OH), binding was characterised by a dissociation constant (Kd) of 3.84 ± 0.44 nM.
